The structures appear in SMILES notation.

The test deals with T1, Full-length, GST-tagged, human CaMKIIδ (Homo sapiens, UniProt Q13557).
T1 construct: Full-Length, Glutathione-S-Transferase(GST)-Tagged, Human CaMKIIδ was purchased from Carna Biosciences; purchased Carna Biosciences 02-111
T1 sequence (Q13557 1-478 isoform Q13557-12): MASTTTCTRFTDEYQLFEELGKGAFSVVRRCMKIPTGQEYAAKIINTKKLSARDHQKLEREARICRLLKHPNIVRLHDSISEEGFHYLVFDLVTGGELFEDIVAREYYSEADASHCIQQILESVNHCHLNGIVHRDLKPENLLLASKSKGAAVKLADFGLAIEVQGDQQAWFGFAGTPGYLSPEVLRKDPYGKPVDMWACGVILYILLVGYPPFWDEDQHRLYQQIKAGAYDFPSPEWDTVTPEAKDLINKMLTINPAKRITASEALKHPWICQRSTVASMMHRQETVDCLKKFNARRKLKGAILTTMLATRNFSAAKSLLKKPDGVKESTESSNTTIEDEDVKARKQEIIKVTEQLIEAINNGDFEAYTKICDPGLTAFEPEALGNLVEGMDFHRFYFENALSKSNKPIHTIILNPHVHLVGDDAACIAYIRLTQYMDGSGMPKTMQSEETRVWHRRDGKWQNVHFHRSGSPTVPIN
Nature of the test: CaMKIIδ binding assay (TR-FRET with BODIPY-labeled probe ligand). The following applies: CaMKIIδ binding assay, results of Table 2. Summed up:
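Compounds were tested as 4-fold, eight-point series for 1 hr at room temperature, and IC50 was obtained by logistic fitting against a 3 μM parent-compound control. Signal came from displacement of a 300 nM BODIPY ligand from 0.5 nM GST-CaMKIIδ, detected via Tb-anti-GST in calmodulin/Ca2+ (pH 7.6).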
(In general: Time-resolved FRET reads energy transfer from a long-lived donor to a nearby acceptor.)
A word on the IC50: it is the concentration that inhibits the measured activity by half. Lower therefore signals greater potency. For `COc1cc2c(cc1Nc1ncc(-c3ccc(Cl)c(O[C@@H](C)Cn4cnnn4)c3)cn1)CN(C(=O)CO)CC2` [Example 522, (S)-1-(7-((5-(3-((1-(1H-tetrazol-1-yl)propan-2-yl)oxy)-4-chlorophenyl)pyrimidin-2-yl)amino)-6-methoxy-3,4-dihydroisoquinolin-2(1H)-yl)-2-hydroxyethan-1-one], the 50% inhibitory concentration (IC50) was in the range of 0.01 to 0.1 µM.
`Cc1ncc(N2CC(O)C2)cc1Nc1ncc(-c2ccc(Cl)c(O[C@@H](C)Cn3cnnn3)c2)cn1` [Example 523, (S)-1-(5-((5-(3-((1-(1H-tetrazol-1-yl)propan-2-yl)oxy)-4-chlorophenyl)pyrimidin-2-yl)amino)-6-methylpyridin-3-yl)azetidin-3-ol]: the IC50 fell in the range of 0.01 to 0.1 µM.
Compound `C[C@@H](Cn1cnnn1)Oc1cc(-c2cnc(Nc3cc4c(cc3C3CC3)CCN(C3COC3)C4)nc2)ccc1C#N` [Example 524, (S)-2-((1-(1H-tetrazol-1-yl)propan-2-yl)oxy)-4-(2-((6-cyclopropyl-2-(oxetan-3-yl)-1,2,3,4-tetrahydroisoquinolin-7-yl)amino)pyrimidin-5-yl)benzonitrile] returned an IC50 of 0.01 to 0.1 µM.
The figure for `C[C@@H](Cn1cnnn1)Oc1cc(-c2cnc(Nc3cc4c(cc3Cl)CCN(C(=O)C(F)(F)F)CC4)nc2)ccc1C#N` [Example 525, (S)-2-((1-(1H-tetrazol-1-yl)propan-2-yl)oxy)-4-(2-((8-chloro-3-(2,2,2-trifluoroacetyl)-2,3,4,5-tetrahydro-1H-benzo[d]azepin-7-yl)amino)pyrimidin-5-yl)benzonitrile] is 0.01 to 0.1 µM; for `COC(=O)c1ccc(OC)c(Nc2ncc(-c3ccc(Cl)c(O[C@@H](C)Cn4cnnn4)c3)cn2)c1` [Example 526, methyl (S)-3-((5-(3-((1-(1H-tetrazol-1-yl)propan-2-yl)oxy)-4-chlorophenyl)pyrimidin-2-yl)amino)-4-methoxybenzoate] it is 0.01 to 0.1 µM; for `C[C@@H](Cn1cnnn1)Oc1cc(-c2cnc(Nc3cc4c(cc3Cl)CCNCC4)nc2)ccc1C#N` [Example 527, (S)-2-((1-(1H-tetrazol-1-yl)propan-2-yl)oxy)-4-(2-((8-chloro-2,3,4,5-tetrahydro-1H-benzo[d]azepin-7-yl)amino)pyrimidin-5-yl)benzonitrile] it is less than 0.01 µM.
The same measure for `COc1cc(C2CCN(C3COC3)CC2)c(C)cc1Nc1ncc(-c2ccc(C#N)c(O[C@@H](C)Cn3cnnn3)c2)cn1` [Example 528, (S)-2-((1-(1H-tetrazol-1-yl)propan-2-yl)oxy)-4-(2-((2-methoxy-5-methyl-4-(1-(oxetan-3-yl)piperidin-4-yl)phenyl)amino)pyrimidin-5-yl)benzonitrile]: less than 0.01 µM; for `COc1cc(C2CCN(C3COC3)CC2)c(C)cc1Nc1ncc(-c2ccc(Cl)c(O[C@@H](C)Cn3cnnn3)c2)cn1` [Example 529, (S)-5-(3-((1-(1H-tetrazol-1-yl)propan-2-yl)oxy)-4-chlorophenyl)-N-(2-methoxy-5-methyl-4-(1-(oxetan-3-yl)piperidin-4-yl)phenyl)pyrimidin-2-amine]: less than 0.01 µM; for `COc1cc(C2=CCN(C3COC3)CC2)c(C)cc1Nc1ncc(-c2ccc(C#N)c(O[C@@H](C)Cn3cnnn3)c2)cn1` [Example 530, (S)-2-((1-(1H-tetrazol-1-yl)propan-2-yl)oxy)-4-(2-((2-methoxy-5-methyl-4-(1-(oxetan-3-yl)-1,2,3,6-tetrahydropyridin-4-yl)phenyl)amino)pyrimidin-5-yl)benzonitrile]: less than 0.01 µM.
The same measure for `COc1cc(C2=CCN(C3COC3)CC2)c(C)cc1Nc1ncc(-c2ccc(Cl)c(O[C@@H](C)Cn3cnnn3)c2)cn1` [Example 531, (S)-5-(3-((1-(1H-tetrazol-1-yl)propan-2-yl)oxy)-4-chlorophenyl)-N-(2-methoxy-5-methyl-4-(1-(oxetan-3-yl)-1,2,3,6-tetrahydropyridin-4-yl)phenyl)pyrimidin-2-amine]: 0.01 to 0.1 µM; for `COc1ccc(N2CCNCC2)cc1Nc1ncc(-c2ccc(Cl)c(O[C@@H](C)Cn3cnnn3)c2)cn1` [Example 533, (S)-5-(3-((1-(1H-tetrazol-1-yl)propan-2-yl)oxy)-4-chlorophenyl)-N-(2-methoxy-5-(piperazin-1-yl)phenyl)pyrimidin-2-amine]: less than 0.01 µM; for `COc1cc(N2CCC(N3CCOCC3)CC2)ccc1Nc1ncc(-c2cc(O[C@@H](C)Cn3cnnn3)c(Cl)cn2)cn1` [Example 534, (S)-5-(4-((1-(1H-tetrazol-1-yl)propan-2-yl)oxy)-5-chloropyridin-2-yl)-N-(2-methoxy-4-(4-morpholinopiperidin-1-yl)phenyl)pyrimidin-2-amine]: not below 0.1 µM.
`C[C@@H](Cn1cnnn1)Oc1cc(-c2cnc(Nc3cn(C4CCN(CCO)CC4)nc3C(F)(F)F)nc2)ccc1Cl` [Example 535, (S)-2-(4-(4-((5-(3-((1-(1H-tetrazol-1-yl)propan-2-yl)oxy)-4-chlorophenyl)pyrimidin-2-yl)amino)-3-(trifluoromethyl)-1H-pyrazol-1-yl)piperidin-1-yl)ethan-1-ol] gave a half-maximal inhibitory concentration (IC50) of less than 0.01 µM.
The same measure for `C[C@@H](Cn1cnnn1)Oc1cc(-c2cnc(Nc3cn(C4CCN(CC#N)CC4)nc3C(F)(F)F)nc2)ccc1Cl` [Example 536, (S)-2-(4-(4-((5-(3-((1-(1H-tetrazol-1-yl)propan-2-yl)oxy)-4-chlorophenyl)pyrimidin-2-yl)amino)-3-(trifluoromethyl)-1H-pyrazol-1-yl)piperidin-1-yl)acetonitrile]: 0.01 to 0.1 µM; for `C[C@@H](Cn1cnnn1)Oc1cc(-c2cnc(Nc3cc(N4CCC(N5CCOCC5)CC4)ncc3OC(F)(F)F)nc2)ccc1Cl` [Example 537, (S)-5-(3-((1-(1H-tetrazol-1-yl)propan-2-yl)oxy)-4-chlorophenyl)-N-(2-(4-morpholinopiperidin-1-yl)-5-(trifluoromethoxy)pyridin-4-yl)pyrimidin-2-amine]: less than 0.01 µM; for `C[C@@H](Cn1cnnn1)Oc1cc(-c2cnc(Nc3cc4c(cc3Cl)CCN(C3CCOCC3)CC4)nc2)ccc1C#N` [Example 538, (S)-2-((1-(1H-tetrazol-1-yl)propan-2-yl)oxy)-4-(2-((8-chloro-3-(tetrahydro-2H-pyran-4-yl)-2,3,4,5-tetrahydro-1H-benzo[d]azepin-7-yl)amino)pyrimidin-5-yl)benzonitrile]: less than 0.01 µM.
Consider `C[C@@H](Cn1cnnn1)Oc1cc(-c2cnc(Nc3cc4c(cc3Cl)CCN(C3COC3)CC4)nc2)ccc1C#N` [Example 539, (S)-2-((1-(1H-tetrazol-1-yl)propan-2-yl)oxy)-4-(2-((8-chloro-3-(oxetan-3-yl)-2,3,4,5-tetrahydro-1H-benzo[d]azepin-7-yl)amino)pyrimidin-5-yl)benzonitrile], for which the IC50 was less than 0.01 µM.
The same measure for `COc1ccc(C(=O)O)cc1Nc1ncc(-c2ccc(Cl)c(O[C@@H](C)Cn3cnnn3)c2)cn1` [Example 540, (S)-3-((5-(3-((1-(1H-tetrazol-1-yl)propan-2-yl)oxy)-4-chlorophenyl)pyrimidin-2-yl)amino)-4-methoxybenzoic acid]: not below 0.1 µM; for `C[C@@H](Cn1cnnn1)Oc1cc(-c2cnc(Nc3cc(N4CCN(C5CCOCC5)CC4)ncc3OC(F)(F)F)nc2)ccc1Cl` [Example 541, (S)-5-(3-((1-(1H-tetrazol-1-yl)propan-2-yl)oxy)-4-chlorophenyl)-N-(2-(4-(tetrahydro-2H-pyran-4-yl)piperazin-1-yl)-5-(trifluoromethoxy)pyridin-4-yl)pyrimidin-2-amine]: less than 0.01 µM; for `C[C@@H](Cn1cnnn1)Oc1cc(-c2cnc(Nc3cc(N4CCN(C5CCOCC5)CC4)ncc3OC(F)(F)F)nc2)ccc1C#N` [Example 542, (S)-2-((1-(1H-tetrazol-1-yl)propan-2-yl)oxy)-4-(2-((2-(4-(tetrahydro-2H-pyran-4-yl)piperazin-1-yl)-5-(trifluoromethoxy)pyridin-4-yl)amino)pyrimidin-5-yl)benzonitrile]: less than 0.01 µM.
In turn, `C[C@@H](Cn1cnnn1)Oc1cc(-c2cnc(Nc3cc(N4CCC(N5CCOCC5)CC4)ncc3OC(F)(F)F)nc2)ccc1C#N` [Example 543, (S)-2-((1-(1H-tetrazol-1-yl)propan-2-yl)oxy)-4-(2-((2-(4-morpholinopiperidin-1-yl)-5-(trifluoromethoxy)pyridin-4-yl)amino)pyrimidin-5-yl)benzonitrile] displayed a 50% inhibitory concentration (IC50) of less than 0.01 µM.
The figure for `COc1ccc(C(=O)N2CCCN(C)CC2)cc1Nc1ncc(-c2ccc(Cl)c(O[C@@H](C)Cn3cnnn3)c2)cn1` [Example 544, (S)-(3-((5-(3-((1-(1H-tetrazol-1-yl)propan-2-yl)oxy)-4-chlorophenyl)pyrimidin-2-yl)amino)-4-methoxyphenyl) (4-methyl-1,4-diazepan-1-yl)methanone] is less than 0.01 µM; for `C[C@@H](Cn1cnnn1)Oc1cc(-c2cnc(Nc3cn(C4CCN(C5CCOCC5)CC4)nc3C3CC3)nc2)ccc1Cl` [Example 545, (S)-5-(3-((1-(1H-tetrazol-1-yl)propan-2-yl)oxy)-4-chlorophenyl)-N-(3-cyclopropyl-1-(1-(tetrahydro-2H-pyran-4-yl)piperidin-4-yl)-1H-pyrazol-4-yl)pyrimidin-2-amine] it is less than 0.01 µM; for `C[C@@H](Cn1cnnn1)Oc1cc(-c2cnc(Nc3cn(C4CCN(C5CCOCC5)CC4)nc3C3CC3)nc2)ccc1C#N` [Example 546, (S)-2-((1-(1H-tetrazol-1-yl)propan-2-yl)oxy)-4-(2-((3-cyclopropyl-1-(1-(tetrahydro-2H-pyran-4-yl)piperidin-4-yl)-1H-pyrazol-4-yl)amino)pyrimidin-5-yl)benzonitrile] it is less than 0.01 µM.
The figure for `C[C@@H](Cn1cnnn1)Oc1cc(-c2cnc(Nc3cn(C4CCN(CCC(C)(C)C)CC4)nc3C(F)(F)F)nc2)ccc1Cl` [Example 547, (S)-5-(3-((1-(1H-tetrazol-1-yl)propan-2-yl)oxy)-4-chlorophenyl)-N-(1-(1-(3,3-dimethylbutyl)piperidin-4-yl)-3-(trifluoromethyl)-1H-pyrazol-4-yl)pyrimidin-2-amine] is less than 0.01 µM.

Values taken from US10543212B2, “Substituted amines for treating cardiac diseases” (Cardurion Pharmaceuticals, LLC, priority 2017, dated 2020).
